What is called IC50 is the concentration at which inhibition is half-maximal.

This passage reports IC50 results from patent US5840745A, “Hydrosoluble 3-arylidene-2-oxindole derivatives as tyrosine kinase inhibitors” (Pharmacia S. p. A., priority 1995, dated 1998).

Counter-ions that a name gives are not always drawn.

The subject of test [1] is K562 cells (human chronic myeloid leukemia). Nature of the test: K562 cell growth inhibition assay. Format: cell-based. The conditions noted are these: 72 h, 10000 cells/well, cell count versus untreated control cells. As to the method: K562 Cell Growth Inhibition Assay
K562 cells, a human myelogenous leukemia cell line, were seeded into a 24 wells tissue culture plate (Falcon 3047) (10000/well) in the presence of increasing concentrations of the compounds. After 72 h, cells were harvested and were counted using a cell counter (Coulter Counter--ZM). The percent of inhibition was evaluated in respect to the untreated control cells.
The inhibitory activity data for two representative compounds according to the present invention, obtained both in the in vitro p45 v-abl kinase assay and the in vivo human chronic myeloid leukemia K562 cell growth inhibition assay described above, are set out in the following Table I.

The target of test [2] is p45 v-abl tyrosine kinase. Nature of the test: in vitro p45 v-abl kinase assay ((Val^5)-Angiotension II phosphorylation). Format: biochemical, Abelson murine leukaemia virus. The conditions noted are these: 40 ng purified abl-kinase; peptide (2 Mm) and ATP (50 μM); 30° C., pH 8.0; triplicated determinations; read-out: IC50 v-abl, inhibition of p45 v-abl kinase. The method, then:
p45 v-abl Kinase Purification
The enzyme used in our test was the p45 v-abl tyrosine kinase which represents the catalytic domain of the Abelson tyrosine kinase (isolated from the Abelson murine leukaemia virus). The p45 v-abl kinase was produced and isolated as described by Wang et al. in J. Biol. Chem. 260, 64 (1985) and by Ferguson et al. in J. Biol. Chem. 260, 3652 (1985) and in Biochem. J. 257, 321 (1989).
(Val^5)-Angiotension II phosphorylation was performed by incubation with 40 ng of purified abl-kinase and (γ-^32 p)-ATP, in 50 μl of buffer containing Tris-HCl 25 mM, pH 8.0, MgCl2 10 mM and dithiothreitol 0.1 mM (kinase buffer). The reaction mixture was incubated for the indicated time at 30° C. and the reaction stopped by adding 50 μl of 5% trichloroacetic acid. After a brief incubation on ice, tubes were centrifuged. The supernatants were spotted on phosphocellulose paper squares (Whatman P-81) and washed extensively in acetic acid. The radioactivity bound to dried phosphocellulose squares was measured in a liquid scintillation counter. IC50 values were calculated from triplicated determinations of each experimental point. Each inhibitor was tested at concentrations ranging from […] in the presence of fixed concentrations of peptide (2 Mm) and ATP (50 μM). […]

As to `COc1ccc2[nH]cc(C=C3C(=O)Nc4ccc(NC(=O)CCN5CCCCC5)cc43)c2c1` [5-(3-piperidinopropionylamino)-3-(5-methoxyindol-3-ylmethylene)-2-oxindole.HCl], the IC50 in test [1] turned out to be 3.7 µM; in test [2], 1.73 µM.
With `CCOC(=O)c1ccc2c(c1)C(=Cc1c[nH]c3ccc(OC)cc13)C(=O)N2` [5-carboethoxy-3-(5-methoxyindol-3-ylmethylene)-2-oxindole], the concentration for half-maximal inhibition (IC50) in test [1] was found to be 2.34 µM; in test [2], 1.99 µM.
